The record followed here is ChEMBL document CHEMBL1201862, “PubChem BioAssay data set” (2004).

Test systems include SK-MEL-5; 786-0; KM12; UACC-257; HCT-116; IGROV-1; PC-3; NCI-H226; A498; OVCAR-4; SK-MEL-2; MOLT-4; T47D; NCI-H522; ACHN; HT-29; OVCAR-3; HCT-15; SF-268; Malme-3M.
Holding throughout (assay): DTP human tumour cell line panel, 48 h

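In this assay, cells in 96-well plates receive the compound at five concentrations for 48 hours. Endpoints are linearly interpolated between the surrounding concentrations. Abbreviation: GI50, concentration required for 50% inhibition of growth.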 Active and inactive are the calls of the source. Cut-off read from the data, not from the text of the source: active = GI50 up to about 1.1 µM and inactive = higher. A value given as a limit tells only on which side of the number the result lay.

For orientation: GI50 means the concentration at which growth is held to half of that of the control.

Turning to `[N-]=[N+]=NI1OC(C(F)(F)F)(C(F)(F)F)c2ccccc21`, the GI50 in the assay on SK-MEL-5 was 1.24 µM (inactive); in the assay on 786-0, 15.5 µM (inactive); in the assay on KM12, 15.6 µM (inactive); in the assay with UACC-257 it was 24.5 µM (inactive); in the assay with HCT-116, 17.3 µM (inactive); in the assay with IGROV-1 it was 16.3 µM (inactive). The GI50 is 15.7 µM (inactive) with PC-3; 18.4 µM (inactive) in the assay on NCI-H226; 17 µM (inactive) with A498; 15.1 µM (inactive) in the assay on OVCAR-4; 16 µM (inactive) in the assay with SK-MEL-2; 14.7 µM (inactive) in the assay with MOLT-4. The GI50 in the assay on T47D is 12.1 µM (inactive); in the assay on NCI-H522, 5.83 µM (inactive); in the assay with ACHN, 13.9 µM (inactive); in the assay on HT-29, 17.3 µM (inactive); in the assay with OVCAR-3 it was 14.7 µM (inactive); in the assay on HCT-15 it was 8.18 µM. The GI50 in the assay on SF-268 was 13.6 µM (inactive).
As to `CCN(CC(O)COc1ccc2c(c1)[n+]([O-])nc(N)[n+]2[O-])C(C)=O` (stereo not drawn), the GI50 was 79.1 µM (inactive) in the assay on SK-MEL-5; > 100 µM (inactive) in the assay with 786-0; > 100 µM (inactive) in the assay on KM12; > 100 µM (inactive) with UACC-257; 97.9 µM (inactive) in the assay with HCT-116; > 100 µM (inactive) in the assay with IGROV-1. For the same compound, the GI50 with PC-3 was > 100 µM (inactive); in the assay on NCI-H226, > 100 µM (inactive); with A498, 62.1 µM (inactive); in the assay on OVCAR-4, 86.5 µM (inactive); in the assay with SK-MEL-2, > 100 µM (inactive); in the assay on MOLT-4 it was 39 µM (inactive). Further, the GI50 was 20.2 µM (inactive) with T47D; 31.1 µM (inactive) in the assay on NCI-H522; > 100 µM (inactive) in the assay on ACHN; > 100 µM (inactive) with HT-29; > 100 µM (inactive) in the assay with OVCAR-3; > 100 µM in the assay with HCT-15. In addition, the GI50 in the assay on SF-268 is 80.5 µM (inactive).
With `O=c1/c(=C/c2ccc(-c3ccc(Cl)cc3Cl)o2)sc2n1[C@@H](c1ccc3c(c1)OCO3)C=C(c1cc(F)c(Cl)cc1Cl)N=2`, the GI50 with SK-MEL-5 was 28.5 µM (inactive); in the assay with 786-0, 42.9 µM (inactive); in the assay on Malme-3M, > 100 µM (inactive); with KM12, 57.5 µM (inactive); with UACC-257, 22.6 µM (inactive); in the assay with HCT-116, 35.4 µM (inactive). For the same compound, the GI50 was 34.3 µM (inactive) in the assay with IGROV-1; 69 µM (inactive) with PC-3; 20.7 µM (inactive) in the assay on NCI-H226; 2.26 µM (inactive) with A498; 33.3 µM (inactive) with OVCAR-4; 26 µM (inactive) with SK-MEL-2. For the same compound, the GI50 is 28.2 µM (inactive) in the assay on MOLT-4; 21.1 µM (inactive) in the assay on T47D; 49.1 µM (inactive) in the assay with NCI-H522; 69.2 µM (inactive) with ACHN; 25.6 µM (inactive) with HT-29; 34.1 µM with HCT-15. Further, the GI50 in the assay on SF-268 is 46.3 µM (inactive).
As for `Nc1ncnc2c1ncn2[C@@H]1C[C@H]1CO`, the GI50 with 786-0, with Malme-3M, in the assay with KM12, with UACC-257, in the assay on HCT-116 and in the assay with PC-3 was > 100 µM (inactive) throughout. Besides, the GI50 with NCI-H226, with A498, in the assay with SK-MEL-2, in the assay with MOLT-4, in the assay with T47D and in the assay on NCI-H522 was > 100 µM (inactive) in each case. The GI50 was > 100 µM (inactive) in the assay on ACHN, > 100 µM (inactive) in the assay on HT-29, 42 µM (inactive) with OVCAR-3 and > 100 µM with HCT-15.
`COc1ccc(OC)c2sc(N3C(=O)/C(=C/Cc4ccco4)N=C3c3ccccc3)nc12`: the GI50 is 21.2 µM (inactive) in the assay on SK-MEL-5; 35.5 µM (inactive) in the assay with 786-0; 38.8 µM (inactive) in the assay on KM12; > 100 µM (inactive) in the assay on UACC-257; 27.3 µM (inactive) with HCT-116; 30.6 µM (inactive) in the assay on IGROV-1. The GI50 with PC-3 was 24.5 µM (inactive); in the assay with A498, 66.2 µM (inactive); in the assay on OVCAR-4 it was 32 µM (inactive); in the assay on SK-MEL-2, 24.1 µM (inactive); in the assay with MOLT-4 it was 17.9 µM (inactive); in the assay on T47D, 26 µM (inactive). In addition, the GI50 in the assay on ACHN is 26.7 µM (inactive); with HT-29, 44 µM (inactive); with OVCAR-3, 31.4 µM (inactive); in the assay on HCT-15, 42.7 µM; with SF-268, 34 µM (inactive).
As for `Cc1ccc(C2=CC(=O)/C(=C\C(=O)c3ccc(Cl)cc3)O2)cc1`, the GI50 in the assay on SK-MEL-5 is 14.5 µM (inactive); in the assay with 786-0 it was 9.95 µM (inactive); in the assay on Malme-3M it was 17.2 µM (inactive); with KM12 it was 22.8 µM (inactive); in the assay with UACC-257, 0.1 µM (active); with HCT-116, 14.3 µM (inactive). Also, the GI50 in the assay with IGROV-1 is 16.2 µM (inactive); in the assay with PC-3, 2.43 µM (inactive); in the assay on NCI-H226 it was 17.2 µM (inactive); with A498, 27.2 µM (inactive); with OVCAR-4, 15.9 µM (inactive); in the assay on MOLT-4, 3.94 µM (inactive). Moreover, the GI50 was 7.18 µM (inactive) in the assay on T47D; 1.97 µM (inactive) in the assay on NCI-H522; 5.09 µM (inactive) with ACHN; 4.14 µM (inactive) with HT-29; 4.7 µM (inactive) in the assay with OVCAR-3; 17.7 µM with HCT-15. The GI50 in the assay with SF-268 was 17.1 µM (inactive).
Turning to `CCN(C)c1nc(N(C)CC)c2nc(N(C)CC)nc(N(C)CC)c2n1`, the GI50 with SK-MEL-5, with 786-0, in the assay with Malme-3M, in the assay with KM12, in the assay on UACC-257 and in the assay with HCT-116 was > 100 µM (inactive) each time. The GI50 in the assay on IGROV-1, in the assay with PC-3, in the assay with A498, with OVCAR-4, in the assay on SK-MEL-2 and in the assay with MOLT-4 was > 100 µM (inactive) in each case. The GI50 is > 100 µM (inactive) in the assay with T47D; > 100 µM (inactive) with NCI-H522; > 100 µM (inactive) in the assay with ACHN; > 100 µM (inactive) with HT-29; > 100 µM (inactive) with OVCAR-3; > 100 µM in the assay on HCT-15. For the same compound, the GI50 in the assay on SF-268 is > 100 µM (inactive).
For `CN1c2ccccc2S(=O)(=O)n2c(COc3ccccc3)nnc21`, the GI50 with SK-MEL-5 is > 100 µM (inactive); with 786-0, 64.6 µM (inactive); in the assay on KM12, > 100 µM (inactive); in the assay on UACC-257, > 100 µM (inactive); in the assay on HCT-116, > 100 µM (inactive); with IGROV-1, > 100 µM (inactive). Moreover, the GI50 was > 100 µM (inactive) in the assay on PC-3; > 100 µM (inactive) in the assay with NCI-H226; 57.8 µM (inactive) in the assay on A498; > 100 µM (inactive) in the assay on OVCAR-4; > 100 µM (inactive) in the assay on SK-MEL-2; > 100 µM (inactive) in the assay with MOLT-4. The GI50 with T47D is > 100 µM (inactive); in the assay with NCI-H522, 56.8 µM (inactive); with ACHN, > 100 µM (inactive); in the assay on HT-29, > 100 µM (inactive); with OVCAR-3, > 100 µM (inactive); in the assay with HCT-15, > 100 µM. The GI50 with SF-268 was > 100 µM (inactive).
Turning to `COC1O[C@H]2[C@H]3[C@@H]1[C@@H](OS(=O)(=O)c1ccc(C)cc1)C(=O)N3C[C@H]2O` (stereo partly drawn), the GI50 in the assay with SK-MEL-5, with 786-0, with Malme-3M, in the assay on KM12, in the assay with UACC-257 and in the assay with HCT-116 was > 100 µM (inactive) each time. Also, the GI50 is 81.8 µM (inactive) in the assay on PC-3; > 100 µM (inactive) in the assay with NCI-H226; > 100 µM (inactive) with A498; > 100 µM (inactive) with OVCAR-4; > 100 µM (inactive) in the assay on SK-MEL-2; 48.5 µM (inactive) in the assay with MOLT-4. For the same compound, the GI50 in the assay on T47D is 64.4 µM (inactive); in the assay on ACHN, > 100 µM (inactive); in the assay on HT-29 it was > 100 µM (inactive); in the assay on OVCAR-3 it was > 100 µM (inactive); in the assay on HCT-15, > 100 µM; in the assay with SF-268, > 100 µM (inactive).
Regarding `CCOC(=O)C1CCCc2sc(N)c(C#N)c21` (stereo not drawn), the GI50 in the assay with SK-MEL-5, in the assay on 786-0, in the assay on Malme-3M, in the assay with KM12, in the assay on UACC-257 and in the assay on HCT-116 was > 100 µM (inactive) in each case. Besides, the GI50 in the assay on IGROV-1, in the assay on PC-3, with NCI-H226, in the assay on A498, in the assay with SK-MEL-2 and in the assay on MOLT-4 was > 100 µM (inactive) in each case. Further, the GI50 in the assay with T47D was > 100 µM (inactive); with ACHN, > 100 µM (inactive); in the assay with HT-29, > 100 µM (inactive); in the assay with HCT-15 it was > 100 µM.
Take `CCN(CCN(CC)C(=O)Nc1ccccc1)C(=O)Nc1ccccc1`: the GI50 with SK-MEL-5, with 786-0, with Malme-3M, in the assay on UACC-257, in the assay on HCT-116 and with IGROV-1 was > 100 µM (inactive) each time. In addition, the GI50 in the assay on PC-3, in the assay on NCI-H226, in the assay on A498, with SK-MEL-2, in the assay with MOLT-4 and in the assay with T47D was > 100 µM (inactive) throughout. Also, the GI50 in the assay on NCI-H522 is > 100 µM (inactive); with ACHN it was > 100 µM (inactive); with HT-29, > 100 µM (inactive); with HCT-15 it was > 100 µM; with SF-268 it was > 100 µM (inactive).
